According to US6451576B1, “Sesquiterpene synthases from grand fir (Abies grandis), and methods of use” (Washington State University Research Foundation, priority 1998, dated 2002):

Biological target: T1, δ-selinene synthase (SEQ ID No:20) (Abies grandis, UniProt O64404)
T1 construct: made in house; host or cells: E. coli XL1-Blue/pGAG4 or E. coli BL21(DE3)/pSBAG4
T1 sequence (O64404 1-581): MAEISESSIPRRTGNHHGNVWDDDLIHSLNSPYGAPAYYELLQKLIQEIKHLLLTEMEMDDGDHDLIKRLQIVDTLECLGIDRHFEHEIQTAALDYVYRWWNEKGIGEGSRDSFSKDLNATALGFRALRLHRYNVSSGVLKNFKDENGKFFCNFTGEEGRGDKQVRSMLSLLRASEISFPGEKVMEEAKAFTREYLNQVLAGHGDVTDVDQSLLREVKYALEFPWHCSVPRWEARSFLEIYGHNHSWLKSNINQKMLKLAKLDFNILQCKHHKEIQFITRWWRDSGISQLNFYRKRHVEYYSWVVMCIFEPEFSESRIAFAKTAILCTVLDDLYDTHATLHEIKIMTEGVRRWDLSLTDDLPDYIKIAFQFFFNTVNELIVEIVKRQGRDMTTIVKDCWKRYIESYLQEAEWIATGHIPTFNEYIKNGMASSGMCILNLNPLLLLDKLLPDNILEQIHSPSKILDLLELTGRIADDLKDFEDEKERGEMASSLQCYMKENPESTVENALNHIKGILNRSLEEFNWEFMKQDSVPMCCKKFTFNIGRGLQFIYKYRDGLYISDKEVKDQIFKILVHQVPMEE
Experiment: Kinetic parameters, metal ion requirement and substrate specificity of recombinant δ-selinene synthase
Assay type: biochemical
Description: The assay for recombinant sesquiterpene synthase (cyclase) activity was performed in 1 ml of buffer (extraction buffer without MnCl2 or the polymeric adsorbents) containing 3.5 μM [1-^3H]farnesyl diphosphate and the total protein extracted from a 5 ml bacterial culture to produce 10^5-10^6 dpm of product in 2 h at 31° C. The incubation mixture was overlaid with 1 ml pentane to trap volatile products. After incubation, the reaction mixture was extracted with pentane (3×1 ml) and the combined extract was passed through a MgSO4-silica gel column to provide the terpene hydrocarbon fractions as before. The columns were subsequently eluted with 3×1 ml of ether to collect any oxygenated products, and an aliquot of each fraction was taken for liquid scintillation counting to determine conversion rate. The monoterpene synthase and diterpene synthase activity assays were similarly performed as described in detail elsewhere (LaFever, R. E., et al., (1994) Arch. Biochem. Biophys. 313, 139-149; Bohlmann, J., et al., (1997) J. Biol. Chem. 272, 21784-21792; Lewinsohn, E., et al., (1991) Plant Physiol. 96, 38-43).
The substrate specificity and other kinetic. parameters of γ-humulene synthase (SEQ ID No:24) and δ-selinene synthase (SEQ ID No:20) were investigated in order to confirm the identification and classification of these enzymes. […] Neither of these sesquiterpene synthases requires K^+ or other monovalent cation for activity.
Substrate specificity of δ-selinene synthase (SEQ ID No:20) and γ-humulene synthase (SEQ ID No:24) was evaluated by comparing farnesyl diphosphate (C15) to geranyl diphosphate (C10) and geranylgeranyl diphosphate (C20) at saturation as precursors of the respective terpene olefins. […] The identities of the monoterpene products produced by the sesquiterpene synthases were determined by GLC-MS and are set forth in FIG. 4.

| SMILES | olefin formation from substrate at saturation, compared with farnesyl diphosphate |
| --- | --- |
| CC(C)=CCC/C(C)=C/CC/C(C)=C/CC/C(C)=C/COP(=O)(O)OP(=O)(O)O [geranylgeranyl diphosphate, reference compound] | failed to generate detectable olefinic products |
| CC(C)=CCC/C(C)=C/COP(=O)(O)OP(=O)(O)O [geranyl diphosphate, reference compound] | roughly half the rate |
